Data taken from patent US20230339970A1, “CASEIN KINASE 1 DELTA MODULATORS” (priority 2020, published 2023).

Tests used:
human CSNK1D = biological target: T1, human CSNK1D (Homo sapiens, UniProt P48730); assay: Whole Cell nBRET CSNK1D Binding Assay; settings: living CHO cells stably expressing human CSNK1D tagged with nanoluciferase; NanoBret tracer 130 nM; 2 hours at 37 C
T1 construct: expressed in transfected cells

[1] = biological target: T2, human recombinant GST cleaved CSNK1D (Homo sapiens, UniProt P48730); assay: Purified Enzyme Assay (ADP-Glo CSNK1D Kinase Assay); type: biochemical; settings: 2 nM CSNK1D; peptide substrate 150 μM; ATP 20 μM; 45 minutes at room temperature
T2 construct: GST (cleaved yes); purchased University of Dundee clone DU 19064
T2 sequence (P48730 whole entry): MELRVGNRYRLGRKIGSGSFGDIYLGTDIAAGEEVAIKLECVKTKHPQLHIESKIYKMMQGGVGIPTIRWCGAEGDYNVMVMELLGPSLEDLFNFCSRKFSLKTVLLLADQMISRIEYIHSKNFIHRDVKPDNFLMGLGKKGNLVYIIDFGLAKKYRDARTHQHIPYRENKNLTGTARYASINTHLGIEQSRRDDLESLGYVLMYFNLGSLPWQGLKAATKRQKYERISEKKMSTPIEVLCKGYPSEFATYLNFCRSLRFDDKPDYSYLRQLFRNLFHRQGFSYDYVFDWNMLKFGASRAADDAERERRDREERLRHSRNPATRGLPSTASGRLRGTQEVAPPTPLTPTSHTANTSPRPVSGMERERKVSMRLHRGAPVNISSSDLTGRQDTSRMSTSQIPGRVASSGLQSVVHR
In short: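 Percent activity derived from ADP-Glo quantification of ADP produced. Reactions: compound dose-response with human recombinant GST-cleaved CSNK1D, ATP and substrate peptide PLSRTL-pS-VASLPGL, incubated 45 min at room temperature.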

T1 sequence (P48730 whole entry): as above

IC50 (human CSNK1D) | IC50 [1] | SMILES
2 nM | 1 nM | Fc1ccc(-c2nn3c(c2-c2ccnc4[nH]ncc24)CC[C@@H]2[C@H]3C2(F)F)cc1 (stereo in doubt) [Example 356, (5a*R,6a*S-6,6-Difluoro-2-(4-fluorophenyl)-3-(1H-pyrazolo[3,4-b]pyridin-4-yl)-5,5a,6,6a-tetrahydro-4H-cyclopropa[e]pyrazolo[1,5-a]pyridine]
180 nM | 9 nM | COCC1(F)CCc2c(-c3c(F)cnc4[nH]ncc34)c(-c3ccc(F)cn3)nn2C1 (single isomer, unassigned) [Example 303, (*R)-5-Fluoro-4-[6-fluoro-2-(5-fluoro-2-pyridyl)-6-(methoxymethyl)-5,7-dihydro-4H-pyrazolo[1,5-a]pyridin-3-yl]-1H-pyrazolo[3,4-b]pyridine]
249 nM | 14 nM | Cc1cc(-c2c(-c3ccc(F)cn3)nn3c2O[C@@H](C)C[C@H]3C)c2cn[nH]c2n1 (single isomer, unassigned) [Example 206, (5*S,7*R)-2-(S-Fluoro-2-pyridyl)-5,7-dimethyl-3-(6-methyl-1H-pyrazolo[3,4-b]pyridin-4-yl)-6,7-dihydro-5H-pyrazolo[5,1-b][1,3]oxazine]
41 nM | 4 nM | C[C@H]1CCCc2c(-c3ccnc4[nH]ncc34)c(-c3ccc(F)cc3)nn21 (single isomer, unassigned) [Example 40, (*S)-4-[2-(4-Fluorophenyl)-7-methyl-4,5,6,7-tetrahydropyrazolo[1,5-a]pyridin-3-yl]-1H-pyrazolo[3,4-b]pyridine]
37 nM | 10 nM | Cc1nc2[nH]nc(C)c2c(-c2c(-c3ccc(F)cn3)nn3c2CC2(C3)CC2(F)F)c1F (single isomer, unassigned) [Example 265, (*R)-1′.1′-Difluoro-3-(5-fluoro-3,6-dimethyl-1H-pyrazolo[3,4-b]pyridin-4-yl)-2-(5-fluoro-2-pyridyl)spiro[4,6-dihydropyrrolo[1,2-b]pyrazole-5,2′-cyclopropane]]
163 nM | 23 nM | Fc1ccc(-c2nn3c(c2-c2c(F)cnc4[nH]ncc24)CC[C@@]2(C3)CC2(F)F)nc1 (single isomer, unassigned) [Example 329, (*S)-2,2-Difluoro-3′-(5-fluoro-1H-pyrazolo[3,4-b]pyridin-4-yl)-2′-(5-fluoropyridin-2-yl)-4′,5′-dihydro-7′H-spiro[cyclopropane-1,6′-pyrazolo[1,5-a]pyridine]]
5690 nM | 344 nM | CCn1ncc2cc(-c3c(-c4ccc(F)cn4)nn4c3COC(C)(C)C4)cnc21 [Example 141, 3-(1-Ethyl-1H-pyrazolo[3,4-b]pyridin-5-yl)-2-(5-fluoropyridin-2-yl)-6,6-dimethyl-6,7-dihydro-4H-pyrazolo[5,1-c][1,4]oxazine]
44 nM | 4 nM | Cc1nc2[nH]ncc2c(-c2c(-c3ccc(F)cn3)nn3c2CC[C@@H]2C[C@@H]23)c1F (single isomer, unassigned) [Example 344, (5a*R,6a*S)-3-(5-Fluoro-6-methyl-1H-pyrazolo[3,4-b]pyridin-4-yl)-2-(5-fluoropyridin-2-yl)-5,5a,6,6a-tetrahydro-4H-cyclopropa[e]pyrazolo[1,5-a]pyridine]
28 nM | 2 nM | CC1(C)CCn2nc(-c3ccc(F)cn3)c(-c3ccnc4[nH]ncc34)c2C1 [Example 50, 4-(2-(5-Fluoropyridin-2-yl)-5,5-dimethyl-4,5,6,7-tetrahydropyrazolo[1,5-a]pyridin-3-yl)-1H-pyrazolo[3,4-b]pyridine]
21 nM | 3 nM | CC1(C)Cc2c(-c3c(F)cnc4[nH]ncc34)c(-c3ccc(F)cn3)nn2C1 [Example 236, 5-Fluoro-4-[2-(5-fluoro-2-pyridyl)-5,5-dimethyl-4,6-dihydropyrrolo[1,2-b]pyrazol-3-yl]-1H-pyrazolo[3,4-b]pyridine]
3020 nM | 60 nM | Cc1cc(-c2c(-c3cscn3)nn3c2CCCC3)c2cn[nH]c2n1 [Example 32, 4-(3-(6-Methyl-1H-pyrazolo[3,4-b]pyridin-4-yl)-4,5,6,7-tetrahydropyrazolo[1,5-a]pyridin-2-yl)thiazole]
7 nM | 1 nM | CC1(C)Cn2nc(-c3ccc(F)cn3)c(-c3ccnc(NC(=O)C4CC4)c3)c2CO1 [Example 134, N-(4-(2-(5-Fluoropyridin-2-yl)-6,6-dimethyl-6,7-dihydro-4H-pyrazolo[5,1-c][1,4]oxazin-3-yl)pyridin-2-yl)cyclopropanecarboxamide]
228 nM | 64 nM | CC1(C)Cn2nc(-c3ccc(F)cn3)c(-c3ccn4ncc(N)c4c3)c2CO1 [Example 381, 5-[2-(5-Fluoro-2-pyridyl)-6,6-dimethyl-4,7-dihydropyrazolo[5,1-c][1,4]oxazin-3-yl]pyrazolo[1,5-a]pyridin-3-amine]
32 nM | 2 nM | CC1(C)Cc2c(-c3ccnc4[nH]ncc34)c(-c3ccc(F)cn3)nn2C1 [Example 234, 4-[2-(5-Fluoro-2-pyridyl)-5,5-dimethyl-4,6-dihydropyrrolo[1,2-b]pyrazol-3-yl]-1H-pyrazolo[3,4-b]pyridine]
293 nM | 27 nM | Fc1ccc(-c2nn3c(c2-c2ccnc4[nH]ncc24)C(F)(F)CC3)nc1 [Example 14, 4-(4,4-Difluoro-2-(5-fluoropyridin-2-yl)-5,6-dihydro-4H-pyrrolo[1,2-b]pyrazol-3-yl)-1H-pyrazolo[3,4-b]pyridine]
75 nM | 5 nM | [2H]C([2H])([2H])C1(C([2H])([2H])[2H])Cn2nc(-c3ccc(F)cn3)c(-c3cc(C(F)F)nc4[nH]ncc34)c2CO1 [Example 402, 3-(6-(Difluoromethyl)-1H-pyrazolo[3,4-b]pyridin-4-yl)-2-(5-fluoropyridin-2-yl)-6,6-bis(methyl-d3)-6,7-dihydro-4H-pyrazolo[5,1-c][1,4]oxazine]
570 nM | 44 nM | CCn1ncc2cc(-c3c(-c4ccc(F)cn4)nn4c3OCC(C)(C)C4)cnc21 [Example 452, 3-(1-Ethyl-1H-pyrazolo[3,4-b]pyridin-5-yl)-2-(5-fluoropyridin-2-yl)-6,6-dimethyl-6,7-dihydro-5H-pyrazolo[5,1-b][1,3]oxazine]
3960 nM | 156 nM | Fc1ccc(-c2nn3c(c2-c2c(F)cnc4[nH]ncc24)COC2(C3)CC2(F)F)nc1 (single isomer, unassigned) [Example 436, (*S)-1′1l′-Difluoro-3-(5-fluoro-1H-pyrazolo[3,4-b]pyridin-4-yl)-2-(5-fluoro-2-pyridyl)spiro[4,7-dihydropyrazolo[5,1-c][1,4]oxazine-6,2′-cyclopropane]]
305 nM | 13 nM | C[C@@H]1C[C@@H](C)n2nc(-c3ccc(F)cn3)c(-c3ccnc4[nH]ncc34)c2O1 (single isomer, unassigned) [Example 204, (5*R,7*R)-2-(S-Fluoropyridin-2-yl)-5,7-dimethyl-3-(1H-pyrazolo[3,4-b]pyridin-4-yl)-6,7-dihydro-5H-pyrazolo[5,1-b][1,3]oxazine]
4 nM | 1 nM | Fc1ccc(-c2nn3c(c2-c2ccnc4[nH]ncc24)C[C@H](F)C3)cc1 [Example 11, (S)-4-(5-Fluoro-2-(4-fluorophenyl)-5,6-dihydro-4H-pyrrolo[1,2-b]pyrazol-3-yl)-1H-pyrazolo[3,4-b]pyridine]
113 nM | 10 nM | C[C@@H]1OCc2c(-c3ccnc4[nH]ncc34)c(-c3ccc(F)cc3)nn2[C@@H]1C (single isomer, unassigned) [Example 113, (6*S,7*R)-2-(4-Fluorophenyl)-6,7-dimethyl-3-(1H-pyrazolo[3,4-b]pyridin-4-yl)-6,7-dihydro-4H-pyrazolo[5,1-c][1,4]oxazine]
122 nM | 18 nM | CC1(C)Cn2nc(-c3ccc(F)cn3)c(-c3ccn4nccc4c3)c2CO1 [Example 140, 2-(5-Fluoropyridin-2-yl)-6,6-dimethyl-3-(pyrazolo[1,5-a]pyridin-5-yl)-6,7-dihydro-4H-pyrazolo[5,1-c][1,4]oxazine]
54 nM | 3 nM | C[C@H]1OCc2c(-c3ccnc4[nH]ncc34)c(-c3ccc(F)cc3)nn2[C@H]1C (relative stereo) [Example 112, (6*R,7*S)-2-(4-Fluorophenyl)-6,7-dimethyl-3-(1H-pyrazolo[3,4-b]pyridin-4-yl)-6,7-dihydro-4H-pyrazolo[5,1-c][1,4]oxazine]
3890 nM | 264 nM | C[C@@]1(C(F)(F)F)Cn2nc(-c3ccc(F)cn3)c(-c3ccn4nccc4c3)c2CO1 (single isomer, unassigned) [Example 415, (*S)-2-(5-Fluoropyridin-2-yl)-6-methyl-3-(pyrazolo[1,5-a]pyridin-5-yl)-6-(trifluoromethyl)-6,7-dihydro-4H-pyrazolo[5,1-c][1,4]oxazine]
1920 nM | 79 nM | Fc1ccc(-c2nn3c(c2-c2c(F)cnc4[nH]ncc24)CC2(C3)CC2(F)F)nc1 (single isomer, unassigned) [Example 259, (*R)-1′.1′-Difluoro-3-(5-fluoro-1H-pyrazolo[3,4-b]pyridin-4-yl)-2-(5-fluoro-2-pyridyl)spiro[4,6-dihydropyrrolo[1,2-b]pyrazole-5,2′-cyclopropane]]
> 10000 nM | 451 nM | Cc1cn2nccc2cc1-c1c(-c2ccc(F)cn2)nn2c1COC(C)(C)C2 [Example 382, 2-(5-Fluoro-2-pyridyl)-6,6-dimethyl-3-(6-methylpyrazolo[1,5-a]pyridin-5-yl)-4,7-dihydropyrazolo[5,1-c][1,4]oxazine]

SMILES | IC50 (human CSNK1D) | IC50 [1]
Fc1ccc(-c2nn3c(c2-c2ccnc4[nH]ncc24)CCCC3)nc1 [Example 35, 4-[2-(5-Fluoro-2-pyridyl)-4,5,6,7-tetrahydropyrazolo[1,5-a]pyridin-3-yl]-1H-pyrazolo[3,4-b]pyridine] | 374 nM | 11 nM
